Test results as given in patent US20120171531A1, “REDOX FLOW BATTERY” (Samsung Electronics Co., Ltd., priority 2010, published 2012).

Experiment: Viscosity of prepared electrolyte solution, Rheometer (AR2000)
Format: physicochemical
Conditions: solvent PC
Experimental: The solubilities of each metal-ligand coordination compound obtained in Preparation Examples 1 through 3 in solvents and viscosity of prepared electrolyte solutions were measured and the results are shown in Table 1. Viscosities were measured using a Rheometer (AR2000).

Row | SMILES | Viscosity (cps)
1 | F[B-](F)(F)F.F[B-](F)(F)F.[Fe+2].c1ccc(-c2ccccn2)nc1.c1ccc(-c2ccccn2)nc1.c1ccc(-c2ccccn2)nc1 [Preparation Example 1, Fe^2+—(bpy)3 [BF4]2] | 4.8
2 | F[B-](F)(F)F.F[B-](F)(F)F.[Ni+2].c1ccc(-c2ccccn2)nc1.c1ccc(-c2ccccn2)nc1.c1ccc(-c2ccccn2)nc1 [Preparation Example 2, Ni^2+—(bpy)3 [BF4]2] | 4.9
